According to article PMC3663987 (Parasitology Research, 2013):
pEC50: −log10 of the molar value.

Molecular target: P-glycoprotein (Pgp, ABCB1) (Homo sapiens, UniProt P08183)
Assay: Pgp-Glo ATPase stimulation assay, recombinant human Pgp membranes
Assay type: biochemical

Sequence of P-glycoprotein (Pgp, ABCB1) (P08183 whole entry): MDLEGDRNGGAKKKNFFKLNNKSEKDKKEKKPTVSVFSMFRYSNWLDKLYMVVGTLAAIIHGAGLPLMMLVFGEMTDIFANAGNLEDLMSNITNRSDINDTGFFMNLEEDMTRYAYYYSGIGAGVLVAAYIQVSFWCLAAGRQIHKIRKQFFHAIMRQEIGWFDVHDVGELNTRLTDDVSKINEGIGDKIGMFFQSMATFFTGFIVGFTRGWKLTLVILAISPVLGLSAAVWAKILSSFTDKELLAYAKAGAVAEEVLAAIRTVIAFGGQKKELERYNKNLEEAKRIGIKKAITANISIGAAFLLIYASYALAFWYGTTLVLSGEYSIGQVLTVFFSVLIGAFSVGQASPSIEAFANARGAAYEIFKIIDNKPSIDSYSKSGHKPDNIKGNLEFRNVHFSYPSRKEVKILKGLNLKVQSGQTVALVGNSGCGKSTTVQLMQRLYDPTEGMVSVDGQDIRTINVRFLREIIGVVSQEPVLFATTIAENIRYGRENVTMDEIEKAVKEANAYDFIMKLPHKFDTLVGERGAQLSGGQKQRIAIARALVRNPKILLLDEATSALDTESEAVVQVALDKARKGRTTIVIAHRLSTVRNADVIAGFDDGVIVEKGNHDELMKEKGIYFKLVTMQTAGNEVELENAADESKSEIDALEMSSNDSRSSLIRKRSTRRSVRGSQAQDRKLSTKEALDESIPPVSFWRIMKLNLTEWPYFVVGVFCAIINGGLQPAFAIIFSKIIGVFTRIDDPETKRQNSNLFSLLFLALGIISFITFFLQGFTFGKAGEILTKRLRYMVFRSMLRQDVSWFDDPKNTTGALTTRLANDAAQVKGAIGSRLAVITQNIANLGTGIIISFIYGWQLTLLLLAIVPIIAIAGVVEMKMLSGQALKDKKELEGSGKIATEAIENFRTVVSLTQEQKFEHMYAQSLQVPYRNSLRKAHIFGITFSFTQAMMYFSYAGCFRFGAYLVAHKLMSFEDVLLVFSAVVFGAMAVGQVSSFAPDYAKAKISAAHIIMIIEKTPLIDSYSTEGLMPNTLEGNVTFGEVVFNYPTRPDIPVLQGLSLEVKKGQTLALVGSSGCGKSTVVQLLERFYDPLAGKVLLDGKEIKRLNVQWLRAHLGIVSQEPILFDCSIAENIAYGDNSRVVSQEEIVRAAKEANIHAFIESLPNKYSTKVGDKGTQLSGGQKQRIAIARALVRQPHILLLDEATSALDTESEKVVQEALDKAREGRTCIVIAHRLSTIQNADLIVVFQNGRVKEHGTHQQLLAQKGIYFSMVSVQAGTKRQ

O=C(Cn1ccnc1[N+](=O)[O-])NCc1ccccc1 [Bz, N-Benzyl-2-nitro-1H-imidazole-1-acetamide]
pEC50: 3.56
